The text below walks through data of article PMC4425616 (Nature medicine, 2015).

In data set [1] the test system is cyclophilin. As to the kind of experiment: Chymotrypsin coupled PPIase activity assay. Type of data set: biochemical.
Data set [2] has as its target FKBP12 (Homo sapiens, UniProt P62942). As to the kind of experiment: Chymotrypsin coupled PPIase activity assay. Type of data set: biochemical.
For data set [3], the target named is Pin1 (Mus musculus, UniProt Q9QUR7). In words: Pin1 protein, mRNA and half-life in MEFs. Type of data set: cell-based. The settings on record: for Pin1 protein half-life: 50 μM, 24 h, cycloheximide chase.
Pin1 (Mus musculus, UniProt Q9QUR7), sequence (Q9QUR7 whole entry): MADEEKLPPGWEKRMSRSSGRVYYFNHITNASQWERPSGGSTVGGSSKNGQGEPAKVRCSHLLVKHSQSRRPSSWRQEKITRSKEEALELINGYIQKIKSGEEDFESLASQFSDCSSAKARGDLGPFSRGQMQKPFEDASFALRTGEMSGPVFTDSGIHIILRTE
Data set [4] deals with T1, Pin1 (Homo sapiens, UniProt Q13526). The class given is binding. The note with it: incubation 0.5 hour.
T1 sequence (Q13526 whole entry): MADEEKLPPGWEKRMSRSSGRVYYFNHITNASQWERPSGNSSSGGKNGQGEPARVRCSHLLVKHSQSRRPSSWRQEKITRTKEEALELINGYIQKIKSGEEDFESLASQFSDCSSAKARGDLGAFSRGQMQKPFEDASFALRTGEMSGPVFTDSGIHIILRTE
The subject of data set [5] is Pin1 WT MEFs. In words: MTT cell growth assay. Type of data set: cell-based, mouse. The settings on record: 72 h. (In general: Tetrazolium assays rely on reduction of a dye to a coloured formazan, in cell work by metabolically active cells.)
Data set [6] relates to Pin1 KO MEFs. As to the kind of experiment: MTT cell growth assay. The settings on record: 72 h, compared with WT MEFs. The class given is cell-based, mouse.
Data set [7] relates to NIH 3T3 cells. In words: Centrosome amplification induced by Pin1 overexpression. Type of data set: cell-based. The note with it: 72 h.
For data set [8], the system named is cyclin D1 promoter. In words: Cyclin D1 promoter-driven luciferase reporter assay. The class given is cell-based. The note with it: SKBR3 cells, 72 h. (In a reporter assay the amount or activity of a reporter protein is the signal.)
Data set [9] concerns SKBR3 cells. As to the kind of experiment: Foci formation assay. Type of data set: cell-based. The settings on record: 48 h.
The subject of data set [10] is PML-RARα. As to the kind of experiment: Immunoblotting for PML-RARα in NB4 cells. Type of data set: cell-based, human. The settings on record: 72 h.
Data set [11] concerns the target T1, Pin1. As to the kind of experiment: Immunostaining of bone marrow of APL patients treated with ATRA. The class given is in vivo.
The subject of data set [12] is PML-RARα. The data set is described as above. The class given is in vivo, human.
The test system of data set [13] is MCF10A cells. As to the kind of experiment: Colorimetric MTT assay. The note with it: 72 h. The class given is cell-based, human.
The test system of data set [14] is HMLE cells. As to the kind of experiment: Colorimetric MTT assay. Type of data set: cell-based, human. The note with it: 72 h.
Data set [15] concerns Pin1 and its substrate oncogenes and tumor suppressors. Type of data set: cell-based, human. The note with it: 72 hr.
Data set [16] deals with MDA-MB-231 cells. In words: MDA-MB-231 xenograft in nude mice. Type of data set: in vivo.
Data set [17] relates to MDA-MB-468 cells. In words: MDA-MB-468 xenograft in nude mice. Type of data set: in vivo. The note with it: ATRA-releasing pellets.
The conditions of data set [18]: standard doses in human patients; cited from earlier work.
Data set [19] deals with APL cells isolated from hCG-PML-RARα transgenic mice. The note with it: 3 weeks treatment.
The target of data set [20] is T1, Pin1. In words: Immunoblotting for Pin1 in NB4 cells. Type of data set: cell-based. The note with it: 72 h. (In general: A western blot detects proteins with antibodies after separation by electrophoresis.)
For data set [21], the system named is human APL NB4 cells. As to the kind of experiment: APL cell differentiation. The class given is cell-based. The note with it: 72 h.
Data set [22] relates to breast cancer cells. As to the kind of experiment: Growth and Pin1 degradation in breast cancer cells, combinations with ATRA. Type of data set: cell-based, human.
Data set [23] concerns the target T1, Pin1. As to the kind of experiment: Photoaffinity labeling of Pin1 with [3H]ATRA. Type of data set: binding. The settings on record: SDS gels.
The target of data set [24] is T1, Pin1. In words: Binding of.
The target of data set [25] is FKBP12 (FK506-binding protein 12) (Homo sapiens, UniProt P62942). In words: Binding of fluorescently-labeled pTide to FKBP12.
FKBP12 (FK506-binding protein 12), sequence (P62942 whole entry, species assumed): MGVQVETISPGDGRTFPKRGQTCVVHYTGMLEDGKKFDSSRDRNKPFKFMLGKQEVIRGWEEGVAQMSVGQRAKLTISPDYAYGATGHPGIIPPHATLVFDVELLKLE
Data set [26] deals with T1, Pin1. The settings on record: cited from earlier work.
The mark [27] stands for this setting: three ATRA-sensitive cancer cell lines.

Broadly, the Kd is a measure of binding affinity in units of concentration.

Read-outs that look alike come from different tables or passages of the source. A value given as a limit tells only on which side of the number the result lay.

FKBP12, sequence (P62942 whole entry, species assumed): as above

Regarding `CC1=C(/C=C/C(C)=C/C=C/C(C)=C\C(=O)O)C(C)(C)CCC1` [13cRA, 13-cis-retinoic acid], the “inhibition of cyclophilin PPIase activity” value in data set [1] is given as “neither inhibited”. In addition, the “inhibition of FKBP12 PPIase activity” value in [2] was “neither inhibited”. For the same compound, the Pin1 protein half-life entry in data set [3] is “reduced Pin1 protein half-life”.

For the compound `CC1=C(/C=C/C(C)=C/C=C/C(C)=C/C(=O)O)C(C)(C)CCC1` [ATRA, all-trans retinoic acid], the “Pin1 binding (FP assay)” value in [4] is “most potent”. Further, the “inhibition of cyclophilin PPIase activity” value in data set [1] was “neither inhibited”. Besides, the “inhibition of FKBP12 PPIase activity” value in data set [2] is listed as “neither inhibited”. The inhibition of growth entry is “Relatively high concentrations of ATRA were required” in data set [5] and “more resistant to ATRA” in data set [6]. Besides, in data set [3], the Pin1 protein half-life entry was “reduced Pin1 protein half-life”. Further, the “Pin1 mRNA levels” value in data set [3] (72 h, quantitative RT-PCR) was “no obvious effects”. Also, the Pin1 protein abundance entry in data set [3] (WT Pin1, 72 h, immunoblotting) was “dose-dependently down-regulated”. Moreover, the “inhibition of Pin1 overexpression-induced centrosome amplification” value in [7] was “dose-dependently and fully inhibited”. In [8], the “inhibition of Pin1-induced activation of the cyclin D1 promoter” value was “dose-dependently and fully inhibited”. The “inhibition of Pin1-enhanced foci formation” value in data set [9] is “dose-dependently and fully inhibited”. In data set [10], the PML-RARα abundance result was “dose-dependently reduced PML-RARα”. For the same compound, the “Pin1 remaining after treatment” value in [11] (3 days of ATRA treatment) is reported as ~ 40%; in data set [11] (10 days of ATRA treatment), < 10%. For the same compound, the “PML-RARα remaining after treatment” value in [12] (3 days of ATRA treatment) was ~ 40%; in data set [12] (10 days of ATRA treatment), < 10%. Also, the “cell proliferation, susceptibility to ATRA” value in data set [13] and in data set [14] was “highly resistant to ATRA” in each case. In addition, the “effects on Pin1 and substrate proteins” value in [15] (MCF10A cells) is “no appreciable effects”. Besides, in [15] (setting [27]), the “abundance of Pin1 and substrate oncogenes (cyclin D1, HER2, ERα, Akt, NFκB p65, c-Jun, PKM2)” value was “dose-dependent decrease in abundance of Pin1 and its substrate oncogenes”. Further, the “abundance of Pin1 substrate tumor suppressors (Smad2/3, SMRT)” value in [15] (setting [27]) is given as “increase in abundance of Pin1 substrate tumor suppressors”. Moreover, the antitumor activity result in data set [16] (33.0 μmol/kg intraperitoneally 3 times a week for 8 weeks) is “only modest antitumor activity”. In [16] (ATRA implants for 7 weeks), the “growth of tumors from MDA-MB-231 cells stably expressing Pin1” value is reported as “effectively inhibited by ATRA in a dose-dependent manner”. Also, the “abundance of Pin1 and cyclin D1 in tumors” value was “reduced abundance of Pin1 and its substrate cyclin D1” in [16] (ATRA-releasing pellets); “reduced abundance of Pin1 and its substrate cyclin D1” in [17]. Moreover, in data set [18], the drug concentration produced is 1200 nM. For the same compound, the “PML-RARα in the bone marrow” value in [19] is recorded as “effectively reduced PML-RARα in the bone marrow”. In addition, the “Pin1 levels in the bone marrow” value in [19] is given as “reduced Pin1 levels in the bone marrow”. In addition, the spleen weights entry in data set [19] is “spleen weights nearly at basal levels”.

Turning to `O=C(O[C@@H]1Cc2c(O)cc(O)cc2O[C@@H]1c1cc(O)c(O)c(O)c1)c1cc(O)c(O)c(O)c1` [EGCG], the PML-RARα abundance entry in data set [10] is listed as “dose-dependently reduced PML-RARα”. The Pin1 abundance entry in data set [20] is “inhibited Pin1 without degrading it”. In addition, in [21], the “induction of APL cell differentiation” value is listed as “neither Pin1 inhibitors nor Pin1 shRNA induced human APL cell differentiation”. In addition, in data set [19], the “PML-RARα in the bone marrow” value was “effectively reduced PML-RARα in the bone marrow”, the “condition of treated mice” value is on record as “rather sick” and the spleen weights entry is recorded as “spleen weights nearly at basal levels”.

Regarding `O=C1C=CC(=O)c2c(O)cccc21` [Juglone], the PML-RARα abundance result in data set [10] is “dose-dependently reduced PML-RARα”. The Pin1 abundance entry in data set [20] is recorded as “inhibited Pin1 without degrading it”. Besides, in [21], the “induction of APL cell differentiation” value is recorded as “neither Pin1 inhibitors nor Pin1 shRNA induced human APL cell differentiation”. In addition, in data set [19], the “PML-RARα in the bone marrow” value is reported as “effectively reduced PML-RARα in the bone marrow”, the “condition of treated mice” value is “rather sick” and the spleen weights result is given as “spleen weights nearly at basal levels”.

On to `CCOC(=O)CN1C(=O)c2ccc3c4c(ccc(c24)C1=O)C(=O)N(CC(=O)OCC)C3=O` [PiB], for which the PML-RARα abundance result in data set [10] was “dose-dependently reduced PML-RARα”. Further, in [20], the Pin1 abundance result is listed as “inhibited Pin1 without degrading it”. In addition, in data set [21], the “induction of APL cell differentiation” value is reported as “neither Pin1 inhibitors nor Pin1 shRNA induced human APL cell differentiation”.

Regarding `CCCCCCCOc1cc2c(cc1/C(C)=C/c1ccc(C(=O)O)cc1)C(C)(C)CCS2(=O)=O` [Ro-415253], the “Pin1 binding (FP assay)” value in [4] is listed as “minimal Pin1 binding”. Further, the “effect on the ability of ATRA to induce Pin1 degradation or inhibit proliferation” value in data set [22] is “neither had obvious effects”.

Turning to `CC1=C(/C=C/C(C)=C/C=C/C(C)=C/C(=O)O)C(C)(C)CCC1` [[^3H]-ATRA, all-trans-[11,12-3H]retinoic acid], in data set [23], the Kd was 800 nM.

With `C=C(c1ccc(C(=O)O)cc1)c1cc2c(cc1C)C(C)(C)CCC2(C)C` [bexarotene], the “Pin1 binding (FP assay)” value in data set [4] is “only marginal Pin1 binding”.

Consider `CC1=C(/C=C/C(C)=C/C=C/C(C)=C/C(=O)Nc2ccc(O)cc2)C(C)(C)CCC1` [fenretinide], for which the “Pin1 binding (FP assay)” value in data set [4] was “only marginal Pin1 binding”.

Turning to `Clc1cccc(C(c2ccc3[nH]cnc3c2)n2ccnc2)c1` (centres unmarked) [liarazole], the “effect in combination with ATRA on cell growth” value in data set [22] is on record as “generally additive effects with ATRA”.

Turning to `CC1=C(/C=C/C(C)=C/C=C/C(C)=C/C=O)C(C)(C)CCC1` [retinal], in data set [4], the “Pin1 binding (FP assay)” value was “totally inactive”.

`CC1=C(/C=C/C(C)=C/C=C/C(C)=C/CO)C(C)(C)CCC1` [retinol]: the “Pin1 binding (FP assay)” value in data set [4] is “totally inactive”.

Regarding `CC(=O)OC/C=C(C)/C=C/C=C(C)/C=C/C1=C(C)CCCC1(C)C` [retinyl acetate], in [4], the “Pin1 binding (FP assay)” value was “totally inactive”.

With Bth-D-phos.Thr-Pip-Nal [pTide], the “binding of fluorescently-labeled pTide to Pin1” value in data set [24] was “bound to Pin1”. In addition, in data set [25], the “binding of fluorescently-labeled pTide to FKBP12” value is listed as “not to FKBP12”. The Kd in data set [26] is 1.2 nM.
